One experiment has as its system acetyl-CoA carboxylase. The experiment is described as follows: Acetyl-CoA carboxylase assay in isolated adipocytes and hepatocytes. In kind it is cell-based, rat. On the procedure:
Acetyl-CoA carboxylase catalyzes the critical step in fatty acid synthesis. The acetyl-CoA carboxylase activities of both isolated adipocytes and hepatocytes in the presence of hGH 177-191 peptide or analogues were measured for the evaluation of the anti-lipogenic effect of the peptides. The acetyl-CoA carboxylase activity was determined by the [C^14]-bicarbonate fixation reaction—the rate of incorporation of acetyl-CoA dependent H[C^14]O3 into [C^14]-malonyl-CoA.
Adipocytes were prepared with the method described in the HSL assay. Hepatocytes were prepared from the livers of male Wistar rats by collagenase digestion. The liver was finely-cut with scissors and transferred to a 250 ml Erlenmeyer flask containing 30 ml of digestion medium. The digestion medium contained microbial collagenase (Type IV) at a concentration of 30 mg/ml in calcium-free Krebs-Ringer phosphate buffer (pH 7.4) and glucose (5 mM). […]
The isolated cells were first preincubated at 37° C. for 30 minutes in a mixture containing 50 mM Tris-HCl buffer (pH 7.5), 10 mM potassium citrate, 10 mM MgCl2, 1 mM dithiothreitol (DTT), and BSA (0.8 mg/ml). […] The [C^14] radioactivity was measured with a liquid scintillation counter. […] Specific activity of the enzyme was expressed as mU/g cell dry weight, where 1 U of acetyl-CoA carboxylase was defined as that amount which catalyzed the carboxylation of 1 μmole acetyl-CoA per minute.

The test system of a further experiment is C57BL/6J (ob/ob) mice. In words: Plasma triglyceride and total cholesterol in obese mice after 18-day chronic treatment. It counts as in vivo, mouse. Particulars: for Plasma total cholesterol / Plasma triglyceride: after 18-day treatment. On the procedure: The animals were anaesthetised with sodium pentobarbitone (80 mg/kg body weight) 12 hr after the last dose of hGH 177-191. Blood samples were collected from the tail vein of anaesthetised animals 45 mins after the administration of anaesthetic. After being centrifuged at 2000×g for 5 minutes, plasma was removed from the samples and used for metabolite assays. Triglyceride and total cholesterol in plasma were measured by enzyme-spectrophotometric methods. The reagents are based on either a modified glycerol phosphate oxidase (GPO)-Trinder's type colour reaction^24 or a cholesterol oxidase-4-aminoantipyrine method^25. All assays were performed with the CentrifiChem System 400 (Union Carbide) containing an automated pipetter, a centrifugal analyser and a recording spectrophotometer. Seronorm Lipid (Nycomed Pharma Co., Oslo, Norway) was used as the calibrator.

The subject of experiment [1] is isolated adipocytes of normal rats. The experiment is described as follows: Diacylglycerol (DAG) release from isolated adipocytes. It counts as cell-based, rat. How it is done: FIG. 8 illustrates the in vitro effect of hGH 177-191 on the release of diacylglycerol from isolated adipocytes of normal rats over an incubation period of 40 min. Diacylglycerol was quantitated using radioenzymic assay and the results were expressed as % increase over the basal levels.
Diacylglycerol released from isolated adipose tissue or adipocytes was quantitated using a radioenzymic assay, employing E coli DAG kinase and defined mixed micelle conditions to solubilize DAG and allow its quantitative conversion to [^33p] phosphatidic acid in the presence of [^33p]-γ-ATP.

In another experiment the test system is Porcine adipose Tissue. The experiment is described as follows: Lipolytic activity in porcine adipose tissue. It counts as cell-based, pig. The settings on record: 0.5 μM peptide. On the procedure:
Adipose tissues were removed from animals and sliced into segments of approximately 200 mg each. Then the tissues were pre-incubated in 25 ml vials containing 2 ml of Krebs-Ringerbicarbonate (KRB) buffer, 4% defatted BSA and 5.5 mM glucose under an atmosphere of carbogen (95%O2/ 5%CO2) at 37° C. for 1 hour. Tissues were then transferred to another vials with fresh medium and the incubation was initiated by adding hGH 177-191 peptide or analogues into the vials. The mixtures were then incubated at 37° C. for 90 minutes. After incubation, the tissues wee removed and aliquots (200 μl) of samples withdrawn from the medium were assayed for the contents of glycerol or free fatty acid (FFA) either by the enzyme assay (glycerol kinase) or calorimetric (copper-dye) spectrometry. The NADH or color produced was then monitored by the absorption at 340 nm and 610 nm, respectively.
Since corresponding sequences of non-human mammals are effectively peptide variants of the human sequence, it is also therefore expected that those corresponding sequences will be effective in other mammals including humans.

Experiment [2] has as its system Human Abdominal adipose Tissue. In words: Antilipogenic activity in human abdominal adipose tissue. It counts as cell-based. The settings on record: 0.1 μM peptide; BSA + insulin. On the procedure:
The rate of the incorporation of exogenous [C^14]-glucose into total lipid in adipose tissue was measured as the index of anti-lipogenic activity of hGH 177-191.
Adipose tissues were sliced into segments of approximately 200 mg each and then placed in Krebs-Ringer bicarbonate (KRB) buffer (pH 7.4) containing 2% defatted BSA, and glucose (0.1 mg/ml) and gassed with 95% O2-5% CO2 at 37° C. After 1 hr preincubation, the tissues were transferred to another 2 ml of fresh media containing [C^14]-glucose (final specific activity 0.05 μCi/μmol), […] of insulin (0.1 mU/ml) for a further 90 min incubation (conditions as above). Then the tissues were removed, washed thoroughly with KRB buffer and lipid was extracted with 5 ml of chlorofom/methanol (2:1, v/v) The extraction solution was washed with 2 ml of MeOH-H2O solution containing 0.1% MgCl2. A 2.5 ml aliquot of the washed extraction solution was taken and transferred to scintillation vials. The [C^14] radioactivity was measured with a liquid scintillation counter. The rates of total lipid synthesis were expressed as μmol [C^14]-glucose incorporated into lipid/g tissue/hr.
Tables 6 and 7 show the in vitro antilipogenic and lipolytic activity of hGH 177-191 and two representative analogues (Ref Nos. 9604 and 9605) on human adipose tissue.

Where no end group is shown, it is not given here.

For the sequence “LRIVQCRSVEGSCGF (cysteine pairing not given here) [Ref No. 9401]”, in the experiment with acetyl-CoA carboxylase, the “effect on acetyl CoA carboxylase (in words)” value is “inhibiting”. The “plasma levels of triglyceride versus control (in words)” value with C57BL/6J (ob/ob) mice (both sexes, ob/ob mice) is listed as “did not influence”. In the experiment on C57BL/6J (ob/ob) mice (female ob/ob mice), the “plasma levels of cholesterol versus control (in words)” value is “only slightly lower”, the Plasma total cholesterol is 2.84 ± 0.29 mmol/L and the Plasma triglyceride was 0.38 ± 0.11 mmol/L. Besides, the Plasma triglyceride with C57BL/6J (ob/ob) mice (male ob/ob mice) amounted to 0.58 ± 0.16 mmol/L. For the same sequence, the Plasma total cholesterol in the experiment on C57BL/6J (ob/ob) mice (male ob/ob mice, listed as hGH 177-191) was 3.52 ± 0.39 mmol/L. The “production/release of diacylglycerol (in words)” value in experiment [1] is given as “activation of the production”. In the experiment on Porcine adipose Tissue, the Glycerol released is 1300 ± 160 nmol/mg tissue/hour. Also, the 14C incorporation in experiment [2] is given as 40 ± 3 Av DPM/mg tissue/hour.
